# Measured values: ChEMBL document CHEMBL1275371, “Synthesis, biological evaluation, and molecular docking studies of 2-chloropyridine derivatives possessing 1,3,4-oxadiazole moiety as potential antitumor agents” (Bioorg Med Chem, 2010)
# Target: Telomerase reverse transcriptase (Homo sapiens, UniProt O14746)
# Test: Inhibition of telomerase in human SGC7901 cells by TRAP assay
# Assay type: cell-based, SGC-7901
# Conditions: not given
# Telomerase reverse transcriptase, sequence (O14746 whole entry): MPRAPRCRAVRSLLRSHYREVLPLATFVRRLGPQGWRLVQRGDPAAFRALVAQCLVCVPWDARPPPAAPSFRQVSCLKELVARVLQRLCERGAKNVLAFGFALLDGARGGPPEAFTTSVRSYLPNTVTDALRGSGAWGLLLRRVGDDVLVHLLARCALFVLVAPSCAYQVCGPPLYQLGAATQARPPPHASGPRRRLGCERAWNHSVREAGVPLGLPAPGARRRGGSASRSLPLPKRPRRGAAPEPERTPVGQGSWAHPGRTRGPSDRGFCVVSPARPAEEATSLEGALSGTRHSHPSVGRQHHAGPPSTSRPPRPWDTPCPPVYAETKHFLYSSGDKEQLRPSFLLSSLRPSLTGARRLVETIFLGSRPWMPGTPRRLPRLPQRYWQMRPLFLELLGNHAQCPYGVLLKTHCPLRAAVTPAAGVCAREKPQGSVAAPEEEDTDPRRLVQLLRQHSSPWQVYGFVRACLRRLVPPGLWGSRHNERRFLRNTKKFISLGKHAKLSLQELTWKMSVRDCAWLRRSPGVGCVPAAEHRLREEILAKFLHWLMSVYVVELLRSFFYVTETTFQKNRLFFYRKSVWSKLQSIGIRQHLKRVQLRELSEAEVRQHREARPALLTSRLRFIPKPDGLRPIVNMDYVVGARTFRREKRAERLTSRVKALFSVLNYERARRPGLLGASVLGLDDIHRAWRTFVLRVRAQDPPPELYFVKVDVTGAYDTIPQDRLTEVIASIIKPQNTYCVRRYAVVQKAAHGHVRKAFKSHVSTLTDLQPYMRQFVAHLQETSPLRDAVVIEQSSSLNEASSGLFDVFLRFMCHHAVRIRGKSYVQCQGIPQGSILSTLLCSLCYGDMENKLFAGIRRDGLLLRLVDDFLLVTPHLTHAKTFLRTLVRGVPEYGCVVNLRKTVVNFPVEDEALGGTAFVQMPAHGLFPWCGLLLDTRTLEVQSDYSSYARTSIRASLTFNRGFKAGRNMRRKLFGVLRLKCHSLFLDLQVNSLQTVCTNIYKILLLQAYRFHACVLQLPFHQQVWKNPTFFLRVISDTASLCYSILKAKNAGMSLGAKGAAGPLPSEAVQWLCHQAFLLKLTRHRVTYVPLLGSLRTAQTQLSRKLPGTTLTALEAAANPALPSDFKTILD
row,SMILES,IC50
1,Clc1ccc(CSc2nnc(-c3cccc4ccccc34)o2)cn1,4.2 µM
2,COc1ccc(-c2nnc(SCc3ccc(Cl)nc3)o2)c(O)c1,2.3 µM

# Tested on: SGC-7901
# Test: Antiproliferative activity against human SGC7901 cells after 48 hrs by MTT assay
# Assay type: functional, cell-based
# Conditions: SGC-7901, 48 h
row,SMILES,IC50
1,Clc1ccc(CSc2nnc(-c3ccccn3)o2)cn1,12.6 µg/mL
2,Clc1ccc(CSc2nnc(-c3ccco3)o2)cn1,14.3 µg/mL
3,Clc1ccc(CSc2nnc(-c3cccs3)o2)cn1,15.1 µg/mL
4,Clc1ccc(CSc2nnc(-c3cccc4ccccc34)o2)cn1,2.56 µg/mL
5,Cc1ccccc1-c1nnc(SCc2ccc(Cl)nc2)o1,8.51 µg/mL
6,Cc1ccc(-c2nnc(SCc3ccc(Cl)nc3)o2)cc1,3.62 µg/mL
7,COc1ccccc1-c1nnc(SCc2ccc(Cl)nc2)o1,8.2 µg/mL
8,COc1ccc(-c2nnc(SCc3ccc(Cl)nc3)o2)cc1,3.5 µg/mL
9,CCOc1ccccc1-c1nnc(SCc2ccc(Cl)nc2)o1,10.3 µg/mL
10,CCOc1ccc(-c2nnc(SCc3ccc(Cl)nc3)o2)cc1,4.97 µg/mL
11,Fc1ccccc1-c1nnc(SCc2ccc(Cl)nc2)o1,9.12 µg/mL
12,Fc1ccc(-c2nnc(SCc3ccc(Cl)nc3)o2)cc1,3.67 µg/mL
13,Clc1ccc(CSc2nnc(-c3ccccc3Cl)o2)cn1,13.4 µg/mL
14,Clc1ccc(-c2nnc(SCc3ccc(Cl)nc3)o2)cc1,8.62 µg/mL
15,Oc1ccc(-c2nnc(SCc3ccc(Cl)nc3)o2)cc1,> 20 µg/mL
16,CC(C)c1ccc(-c2nnc(SCc3ccc(Cl)nc3)o2)cc1,4.32 µg/mL
17,Nc1ccc(-c2nnc(SCc3ccc(Cl)nc3)o2)cc1,8.48 µg/mL
18,CN(C)c1ccc(-c2nnc(SCc3ccc(Cl)nc3)o2)cc1,8.9 µg/mL
19,COc1ccc(-c2nnc(SCc3ccc(Cl)nc3)o2)c(O)c1,1.61 µg/mL
20,COc1ccc(-c2nnc(SCc3ccc(Cl)nc3)o2)cc1OC,4.48 µg/mL
21,COc1cc(-c2nnc(SCc3ccc(Cl)nc3)o2)cc(OC)c1OC,10.2 µg/mL
22,O=c1[nH]cc(F)c(=O)[nH]1 [FLUOROURACIL],7.36 µg/mL
